# “Also recorded” adds a separate entry of the source. Like-named read-outs stand apart in the source and are kept apart here.
# What was measured:
# [1] = system: eIF4A-dependent translation; test: cells; format: cell-based; settings: for inhibition at 0.01 µM: read-out: inhibition of translation of the (AG)15 construct
# NHBE cells = test: Cytotoxicity in differentiated NHBE cells by light microscopy; format: cell-based, human; settings: 100 nM
# ZIKV = test: Antiviral activity against ZIKV (strain 976 Uganda) in A549 cells, intracellular ZIKV genomes by qRT-PCR; format: cell-based; settings: Zika virus
# MERS-CoV [2] = test: microbe, parasite or virus in culture; format: cell-based, Middle East respiratory syndrome coronavirus
# HCoV-229E [3] = settings: Müller et al. [2020]; read-out: EC50 reported previously for HCoV-229E; cited from earlier work
# HCoV-229E [4] = test: microbe, parasite or virus in culture; format: cell-based, human coronavirus 229E
# CCHFV = test: microbe, parasite or virus in culture; format: cell-based, Crimean-Congo hemorrhagic fever virus; settings: for EC50: Orthonairovirus haemorrhagiae, Hepatocyte, in Mus musculus
# HCoV-229E [5] = format: cell-based, human coronavirus 229E
# SARS-CoV-2 [6] = test: Immunofluorescence of viral dsRNA in SARS-CoV-2-infected Vero E6 cells; format: cell-based, severe acute respiratory syndrome coronavirus 2; settings: Vero E6, MOI 1, 24 h p.i.
# SARS-CoV-2 [7] = test: microbe, parasite or virus in culture; format: cell-based, severe acute respiratory syndrome coronavirus 2
# SARS-CoV-2 [8] = format: cell-based, severe acute respiratory syndrome coronavirus 2
# HCoV-229E [9] = test: Immunofluorescence of nsp8 and dsRNA in HCoV-229E-infected MRC-5 cells; format: cell-based, human coronavirus 229E; settings: MRC-5, MOI 1, 24 hpi
# HCoV-229E [10] = format: cell-based, human coronavirus 229E; remark: listed apart in the source
# murine hepatocytes = settings: for CC50: mouse
# LASV = test: microbe, parasite or virus in culture; format: cell-based, Lassa mammarenavirus; settings: for EC50: Mammarenavirus lassaense, Hepatocyte, in Mus musculus
# SARS-CoV-2 [11] = format: cell-based, severe acute respiratory syndrome coronavirus 2; remark: listed apart in the source
# HEV = format: cell-based, hepatitis E virus
# HCoV-229E [12] = format: cell-based, human coronavirus 229E; remark: listed apart in the source
# MERS-CoV [13] = settings: read-out: EC50 reported previously for MERS-CoV; cited from earlier work
# [14] = system: persistently HEV-infected A549 cells; settings: 2 nM, 72 h
# tumor growth = settings: xenograft mouse model; cited from earlier work
# A549 cells = settings: human
# [15] = mice, cited from earlier work
# [16] = Middle East respiratory syndrome-related coronavirus, MRC5
molecule,measurement,setting,value
CONC(=O)[C@H]1[C@@H](O)[C@@]2(O)c3c(OC)cc(OC)cc3O[C@@]2(c2ccc(OC)cc2)[C@@H]1c1ccccc1 [CR-31-B (−)],induction of luciferase activity,[1],1.5 fold
same,"reporter activity, VP35-HP only",[1],about twofold
same,"reporter activity, VP35-HP+(AG)5",[1],reduced back to basic levels
same,"sensitivity of translation, EBOV VP35 5′-UTR",[1],insensitive
same,"sensitivity to eIF4A-dependent translation inhibition, 5′-UTRs of SARS-CoV-2, HCoV-229E and MERS-CoV",[1],similarly sensitive
same,"sensitivity to translation inhibition, 5′-UTRs of HCoV-229E, MERS-CoV and EBOV VP30",[1],similarly sensitive
same,"sensitivity, HEVgt3c-Purine 5′-UTR",[1],became sensitive
same,inhibition at 0.01 µM,[1],~80%
same,cytotoxicity by light microscopy,NHBE cells,No obvious cytotoxicity
same,EC50,"ZIKV; A549 cells, MOI 0.1, ZIKV genomes by qRT-PCR, 24 hpi, read-out: EC50",1.13 nM
same,EC50,MERS-CoV [2],1.87 nM
same,MERS-CoV titer reduction,MERS-CoV [2],about 5 log phases
same,EC50,MERS-CoV [2]; [16],2.09 nM
same,EC50,HCoV-229E [3],2.88 nM
same,EC50,HCoV-229E [4],2.88 nM
same,EC50,"HCoV-229E [4]; Human coronavirus 229E, MRC5",3.49 nM
same,"virus titer drop, CCHFV-infected cells",CCHFV,~3 log
same,EC50,CCHFV,20 nM
same,Coronavirus N-protein levels,HCoV-229E [5],strongly reduced
same,replicative organelles active in viral RNA synthesis (dsRNA),SARS-CoV-2 [6],profound reduction
same,selectivity index (CC50/EC50),SARS-CoV-2 [7],> 50
same,EC50,"SARS-CoV-2 [7]; Severe acute respiratory syndrome coronavirus 2, Vero C1008, 24 h",~1.8 nM
same,SARS-CoV-2 replication / titers,SARS-CoV-2 [8],undetectable levels
same,reduction of SARS-CoV-2 titers,SARS-CoV-2 [8],about 4 logs
same,reduction of production of infectious virus progeny,SARS-CoV-2 [8],approximately 1.5 log steps
same,formation of viral replication/transcription complexes,HCoV-229E [9],reduced
same,genomic and subgenomic RNA levels of HCoV-229E,HCoV-229E [10],reduced
same,cytotoxicity (in words),murine hepatocytes,no detectable cytotoxicity
same,CC50,murine hepatocytes,> 5000 nM
same,antiviral activity against LASV and CCHFV (in words),LASV,potent antiviral activity
same,"virus titer drop, LASV-infected cells",LASV,approximately 4 log
same,EC50,LASV,36.1 nM
same,EC50,LASV; read-out: EC50 values,20 to 50 nM
same,cytotoxicity (in words),Vero E6 cells,No major cytotoxicity
same,cell viability reduced by,Vero E6 cells; African green monkey,10-25%
same,Viral nucleocapsid (N) protein levels,SARS-CoV-2 [11],drastically reduced; also recorded: moderately reduced
same,antiviral effect on extracellular HEV RNA levels,HEV,slightly weaker; also recorded: some antiviral activity
same,infectious virus production,HCoV-229E [12],undetectable levels
same,reduction of virus titer in the supernatant,HCoV-229E [12],about 1.5 orders of magnitude
same,EC50,MERS-CoV [13],1.87 nM
same,reduction of cell viability,[14],no major cytotoxic effects
same,cytotoxicity (in words),MRC-5 cells,no major cytotoxicity
same,CC50,MRC-5 cells; human,> 5000 nM
same,reduction of cell viability,MRC-5 cells; human,10-25%
CONC(=O)[C@@H]1[C@H](O)[C@]2(O)c3c(OC)cc(OC)cc3O[C@]2(c2ccc(OC)cc2)[C@H]1c1ccccc1 [CR-31-B (+)],Coronavirus N-protein levels,HCoV-229E [5],no detectable effect
same,SARS-CoV-2 replication / titers,SARS-CoV-2 [8],did not affect viral replication
same,antiviral activity against LASV and CCHFV (in words),LASV,no antiviral effects
same,Viral nucleocapsid (N) protein levels,SARS-CoV-2 [11],not affected
same,infectious virus production,HCoV-229E [12],did not significantly reduce viral replication
same,reduction of cell viability,[14],no major cytotoxic effects
same,cytotoxicity (in words),MRC-5 cells,no major cytotoxicity
"COC(=O)[C@H]1[C@@H](O)[C@@]2(O)c3c(OC)cc(O[C@@H]4O[C@@H]([C@H](O)CO)CO[C@H]4OC)cc3O[C@@]2(c2ccc(OC)cc2)[C@@H]1c1ccccc1 [Silvestrol, methyl(1R,2R,3S,3aR,8bS)-6-[[(2S,3R,6R)-6-[(1R)-1,2-dihydroxyethyl]-3-methoxy-1,4-dioxan-2-yl]oxy]-1,8b-dihydroxy-8-methoxy-3a-(4-methoxyphenyl)-3-phenyl-2,3-dihydro-1H-cyclopenta[b][1]benzofuran-2-carboxylate, reference compound]",induction of luciferase activity,[1],1.5 fold
same,"inhibitory effect, destabilized HEV 5′-UTR hairpin",[1],gradual loss of the inhibitory effect
same,"luciferase activity, HEVgt3c 5′-UTR",[1],reduced luciferase activity
same,"reporter activity, VP35-HP only",[1],sufficient to mediate translation inhibition
same,"reporter activity, VP35-HP+(AG)5",[1],slightly increased translation inhibition
same,"sensitivity of translation, EBOV VP35 5′-UTR",[1],sensitive
same,"sensitivity to translation inhibition, 5′-UTRs of HCoV-229E, MERS-CoV and EBOV VP30",[1],similarly sensitive
same,"sensitivity, HEVgt3c-Purine 5′-UTR",[1],became sensitive
same,inhibition at 0.01 µM,[1],~55%
same,tumor growth,tumor growth,reduced tumor growth efficiently
same,EC50,ZIKV; A549,1.08 nM
same,EC50,MERS-CoV [2]; [16],1.3 nM
same,EC50,"HCoV-229E [4]; Human coronavirus 229E, MRC5",3 nM
same,"virus titer drop, CCHFV-infected cells",CCHFV,~3 log
same,EC50,CCHFV,28.5 nM
same,CC50,A549 cells,9.42 nM
same,SARS-CoV-2 replication / titers,SARS-CoV-2 [8],completely abolished
same,cytotoxicity (in words),murine hepatocytes,no detectable cytotoxicity
same,CC50,murine hepatocytes,> 5000 nM
same,antiviral activity against LASV and CCHFV (in words),LASV,potent antiviral activity
same,"virus titer drop, LASV-infected cells",LASV,approximately 4 log
same,EC50,LASV,50.7 nM
same,EC50,LASV; read-out: EC50 values,20 to 50 nM
same,antiviral effect on extracellular HEV RNA levels,HEV,antiviral activity
same,infectious virus production,HCoV-229E [12],undetectable levels
same,reduction of virus titer in the supernatant,HCoV-229E [12],similar
same,CC50,MRC-5 cells; human,> 10000 nM
CR-31-B,tumor growth,tumor growth,reduced tumor growth efficiently
same,"serum levels of aminotransferases (ALT and AST), albumin, total bilirubin, creatinine",[15]; two weeks after cessation of treatment,not significantly changed
same,"body weight, number of blood cells",[15],did not change
same,toxicity in the gastrointestinal tract,[15],no toxicity could be observed
same,reduction of cell viability,[14],not cytotoxic
same,cytotoxic effects (in words),MRC-5 cells,no major cytotoxic effects

# Reference: patent publication US20250345307A1, “SYNTHETIC […] BROAD-SPECTRUM ANTIVIRAL ACTIVITIES AND USES THEREOF” (priority 2020, published 2025)
